Reference: patent US20120003661A1, “METHODS AND DEVICES FOR THE SELECTIVE DETECTION OF MICROORGANISMS” (C3 JIAN, INC., priority 2010, published 2012)
“Also recorded” adds a separate entry of the source. Like-named read-outs stand apart in the source and are kept apart here.

System: bacteria, fungi, and/or yeasts
Format: binding
[1] = microorganism(s) that the targeting peptide binds, as listed in Table 2
[2] = microorganism(s) the targeting peptide binds, as listed in Table 2
[3] = microorganism(s) listed as target(s) of the targeting peptide, wrapped target lists given cell by cell

Row | Substance | Target(s) [2] | Target(s) [3] | further results
1 | PF-C055 (YNLSIYIYFLHTITIAGLITLPFII) |  |  | Target(s) [1]: A. naeslundii, F. nucleatum, P. gingivalis,; also recorded: S. mutans
2 | 1T-125 (DAITGGNPPLSDTDGLRP) | S. epidermidis, S. gordonii, S. mutans,; also recorded: S. oralis |  | 
3 | PF-C072 (KKMFSLIRKVNWIFFILFIVLDLTNVFPLIRTILFAILSRQ) |  |  | Target(s) [1]: A. naeslundii, F. nucleatum, P. gingivalis,; also recorded: S. mutans, T. denticola
4 | 1T-164 (KKSHSQGKRKLKDLNSAYKIDNQLHYALR) | A. naeslundii, F. nucleatum, P. gingivalis,; also recorded: S. epidermidis, S. gordonii,; also recorded: S. mitis, S. mutans, S. oralis,; also recorded: S. salivarious, S. sanguinis |  | 
5 | 1T-174 (SGGSDTDGSSSGEPGSHSGDL) | A. naeslundii, F. nucleatum, P. gingivalis,; also recorded: T. denticola, S. gordonii,; also recorded: S. mitis, S. mutans, S. oralis,; also recorded: S. salivarious, S. sanguinis |  | 
6 | PF-021 (FSLNFSKQKYVTVN) |  | yeast and hyphal forms; also recorded: S. epidermidis, M. luteus, P. mirabilis,; also recorded: E. coli, C. albicans, E. faecalis,; also recorded: C. jeikeium | 
7 | 1T-175 (GEPGSHSGDL) | A. naeslundii, F. nucleatum, P. gingivalis,; also recorded: S. epidermidis, S. gordonii,; also recorded: S. mitis, S. mutans, S. oralis,; also recorded: S. salivarious, S. sanguinis |  | 
8 | PF-153 (GILARADCSQIA) |  | M. luteus, P. mirabilis, E. coli, and MRSA | 
9 | PF-C273 (KNMLKRRMKQKRLFDEEDRLRVLSKYTKSYY) |  |  | Target(s) [1]: A. naeslundii, P. gingivalis, S. mutans,; also recorded: T. denticola
10 | 1T-250 (LVQGDTILIENHVGTPVKDDGKDCLIIREADVLAVVND) |  | S. mitis, S. mutans, S. oralis | 
11 | 1T-75 (GVARGLQLGIKTRTQWGAATGAA) | S. pneumoniae |  | 
12 | 1T-63 (EPLILKELVRNLFLFCYARALR) | S. aureus, S. epidermidis, C. jeikeium,; also recorded: C. xerosis, C. striatum,; also recorded: P. aeruginosa |  | 
13 | PF-076 (LYQYELLSKEEYLKCTLIINQRRNEQK) |  | S. epidermidis, M. luteus, E. coli,; also recorded: P. aeruginosa, C. albicans,; also recorded: MRSA, S. pneumoniae, E. faecalis,; also recorded: C. jeikeium, C. jejuni | 
14 | 1T-202 (LCRLEKLCKQFLRQDKVVTYYLMLPYKRAIEAFYQELKERS) | A. naeslundii, F. nucleatum, P. gingivalis,; also recorded: S. epidermidis, S. gordonii,; also recorded: S. mitis, S. mutans, S. oralis,; also recorded: S. salivarious, S. sanguinis |  | 
15 | 1T-98 (VRSAKAVKALTAAGYTGELVNVSGGMKAWLGQ) | A. naeslundii, F. nucleatum, P. gingivalis,; also recorded: S. epidermidis, S. gordonii,; also recorded: S. mitis, S. mutans, S. oralis,; also recorded: S. salivarious, S. sanguinis |  | 
16 | PF-796 (YTQSNIPTAYALMLSNKDSI) |  |  | Target(s) [1]: S. mutans
17 | 1T-279 (FVLRTKHCFY) |  | A. naeslundii, F. nucleatum, P. gingivalis,; also recorded: S. gordonii, S. mitis,; also recorded: S. mutans, S. oralis, S. salivarious,; also recorded: S. sanguinis | 
18 | 1T-23 (PALVDLSNKEAVWAVLDDHS) | S. mutans, P. aeruginosa |  | 
19 | PF-147 (RRPRRRRSGHGQSASAA) |  | S. epidermidis, M. luteus, MRSA | 
20 | PF-146 (GCGKRRIITKSASRDTR) |  | S. epidermidis, M. luteus, P. aeruginosa,; also recorded: C. albicans, MRSA,; also recorded: C. jeikeium | 
21 | PF-C062 (PLARATEVVATLFIICSLLLYLTR) |  |  | Target(s) [1]: A. naeslundii, F. nucleatum, P. gingivalis,; also recorded: S. mutans, T. denticola
22 | 1T-292 (IINQLNLILLRLMEILIL) |  | A. naeslundii, F. nucleatum, P. gingivalis,; also recorded: S. epidermidis, S. gordonii,; also recorded: S. mitis, S. mutans, S. oralis,; also recorded: S. salivarious, S. sanguinis | 
23 | 1T-33 (VRTLTILVIFIFNYLKSISYKLKQPFENNLAQSMISI) | S. aureus, S. epidermidis, C. jeikeium,; also recorded: C. xerosis, C. striatum,; also recorded: P. aeruginosa |  | 
24 | PF-136 (LRGRVGRITACGYPP) |  | S. epidermidis, M. luteus, P. mirabilis,; also recorded: E. coli, MRSA, E. faecalis,; also recorded: C. jeikeium, C. jejuni, M. smegmatis | 

Row | Substance | Target(s) [2] | Target(s) [3] | further results
25 | PF-169 (APGSAADSPRSRADD) |  | S. epidermidis, E. coli, C. albicans,; also recorded: E. faecalis, C. jeikeium | 
26 | PF-028 (ALDCSEQSVILWYETILDKIVGVIK) |  | S. epidermidis, M. luteus, MRSA | 
27 | PF-009 (SKKYNHILNQENR) |  | yeast and hyphal forms; also recorded: M. luteus, P. mirabilis, C. albicans | 
28 | 1T-82 (FGVGVGIALFMAGYAIGKDLRKKFGKSC) | S. pneumoniae |  | 
29 | 1T-177 (GTNVPTQILGYSREERFDYEPAPEQR) | P. gingivalis, S. gordonii, S. mitis,; also recorded: S. mutans, S. oralis, S. salivarious,; also recorded: S. sanguinis |  | 
30 | 1T-72 (EPTDGVACKER) | P. aeruginosa |  | 
31 | PF-001 (MNNWIIVAQLSVTVINEIIDIMKEKQKGGK) |  | S. epidermidis, M. luteus, P. mirabilis,; also recorded: E. coli, P. aeruginosa,; also recorded: C. albicans, MRSA, E. faecalis,; also recorded: C. jeikeium | 
32 | PF-C075 (KALVISVFAIVFSIIFVKFFYWRDKK) |  |  | Target(s) [1]: A. naeslundii, F. nucleatum, P. gingivalis,; also recorded: S. mutans, T. denticola
33 | 1T-136 (ELLTQIRLALLYSVNEW) | A. naeslundii, F. nucleatum, P. gingivalis,; also recorded: S. epidermidis, S. gordonii,; also recorded: S. mitis, S. mutans, S. oralis,; also recorded: S. salivarious, S. sanguinis |  | 
34 | 1T-144 (IIELHPKSWTQDWRCSFL) | A. naeslundii, F. nucleatum, P. gingivalis,; also recorded: T. denticola, S. gordonii,; also recorded: S. mitis, S. mutans, S. oralis,; also recorded: S. salivarious, S. sanguinis |  | 
35 | 1T-289 (EPSADIYLSAKDTKT) |  | F. nucleatum, P. gingivalis, S. gordonii,; also recorded: S. mitis, S. mutans, S. oralis,; also recorded: S. sanguinis | 
36 | PF-013 (LIQKGLNQTFIVVIRLNNFIKKS) |  | M. luteus, P. mirabilis, E. coli, P. aeruginosa,; also recorded: MRSA, S. pneumoniae,; also recorded: C. jeikeium, C. jejuni | 
37 | 1T-50 (HSDEPIPNILFKSDSVH) | P. aeruginosa |  | 
38 | PF-138 (AVHHSLLFR) |  | S. epidermidis, M. luteus, P. mirabilis,; also recorded: E. coli, C. albicans,; also recorded: MRSA, C. jeikeium, C. jejuni | 
39 | PF-791 (IFLTTQNTDYSEHNAA) |  |  | Target(s) [1]: S. mutans
40 | 1T-203 (YPFCLATVDHLPEGLSVTDYERVQRLVSQFLLNKEER) | A. naeslundii, F. nucleatum, P. gingivalis,; also recorded: S. epidermidis, S. gordonii,; also recorded: S. mitis, S. mutans, S. oralis,; also recorded: S. salivarious, S. sanguinis |  | 
41 | 1T-169 (FARVRRLHQNRILTQPLTNLKYCLRQPIYSD) | A. naeslundii, F. nucleatum, P. gingivalis,; also recorded: S. epidermidis, S. gordonii,; also recorded: S. mitis, S. mutans, S. oralis,; also recorded: S. salivarious, S. sanguinis |  | 
42 | 1T-166 (AQSAGQIKRKSKVRIHV) | A. naeslundii, F. nucleatum, P. gingivalis,; also recorded: S. epidermidis, S. gordonii,; also recorded: S. mitis, S. mutans, S. oralis,; also recorded: S. salivarious, S. sanguinis |  | 
43 | 1T-282 (ISLVFPAYT) |  | F. nucleatum, P. gingivalis, S. gordonii,; also recorded: S. mitis, S. mutans, S. oralis,; also recorded: S. salivarious, S. sanguinis | 
44 | 1T-216 (FFLNVIAIRIPHF) | S. sanguinis |  | 
45 | 1T-240 (VILGNGISNIAQTLGQLPNIAWVWIYMVLIAALLEESNVC) | A. naeslundii, F. nucleatum, P. gingivalis,; also recorded: S. epidermidis, S. gordonii,; also recorded: S. mitis, S. mutans, S. oralis,; also recorded: S. salivarious, S. sanguinis |  | 
46 | 1T-10 (SPAGLPGDGDEA) | M. xanthus |  | 
47 | PF-795 (ALHKSGIQVIADWVPDQIYN) |  |  | Target(s) [1]: S. mutans
